Experimental data: patent publication US10815276B2, “Cell penetrating peptides and methods of making and using thereof” (Entrada Therapeutics, Inc., priority 2014, dated 2020)
Starred links: 1 amine or outer side, 2 acyl side, 3 side chain; linkers in the order of their positions; H or OH if unused. Positions of bridges follow the written chain, without caps; N, C: chain ends. Non-standard residues stand in square brackets, D forms with d. Residues, ends and D or L forms follow the SMILES beside them. No end group written: not given here. Trimesoyl = O=C(c1cc(C(=O)[*:2])cc(C(=O)[*:3])c1)[*:1]; Phe(4-F) = N[C@@H](Cc1ccc(F)cc1)C(=O)O; dPhe(4-F) = N[C@H](Cc1ccc(F)cc1)C(=O)O; 2Nal = N[C@@H](Cc1ccc2ccccc2c1)C(=O)O; Pip = O=C(O)[C@@H]1CCCCN1; Dap = NC[C@H](N)C(=O)O

Assays:
Pin1 [1] = target: T1, Pin1 (Homo sapiens, UniProt Q13526, S16A/Y23A); assay: cis-trans isomerase activity, Suc-Ala-Glu-Pro-Phe-pNA; type: biochemical; conditions: substrate Suc-Ala-Glu-Pro-Phe-pNA; read-out: IC50 for Pin1 catalytic activity
T1 construct: The full-length human S16A/Y23A mutant Pin1 was expressed and purified from E. coli; made in house
Procedure: (§1) (FIG. 37A) Binding to FITC-labeled peptide 37 to Pin1 as analyzed by fluorescent anisotropy (FA). (FIG. 37B) Competition between peptide 37 and FITC-labeled peptide 1 (100 nM) for binding to Pin1 (400 nM) as monitored by FA. (FIG. 37C) Effect of peptide 37 on the cis-trans isomerase activity of Pin1, Pin4, FKBP12, and cyclophilin A using Suc-Ala-Glu-Pro-Phe-pNA as substrate. (FIG. 37D) Comparison of the serum stability of peptides 1 and 37.
(§2) To determine whether peptide 37 binds to the catalytic site of Pin1, its ability to compete with peptide 1 for binding to Pin1 by FA analysis was examined. […] Next, the catalytic activity of Pin1 toward a peptide substrate, Suc-Ala-Glu-Pro-Phe-pNA, in the presence of increasing concentrations of peptide 37 was monitored.

[2] = target: bovine serum albumin (BSA) (Bos taurus, UniProt P02769); assay: biochemical; type: binding
Procedure: (§3) The selectivity of peptide 37 was assessed by two different tests. First, peptide 37 was tested for binding to a panel of arbitrarily selected proteins including bovine serum albumin (BSA), protein tyrosine phosphatases 1B, SHP1, and SHP2, the Grb2 SH2 domain, Ras, and tumor necrosis factor-a. […] Peptide 37 was next tested for potential inhibition of Pin4, FKBP12, and cyclophilin A, the three other common human peptidyl-prolyl cis-trans isomerases. […] Peptide 37 had no effect on the catalytic activity of FKBP12 or cyclophilin A up to 5 μM concentration.

HeLa cells [3] = test system: HeLa cells
Source text: The effect of peptide 37 on the growth of HeLa cells was examined by using the MTT cell viability assay.

HeLa cells [4] = assay: Western blot of PML protein level; type: cell-based, human
Procedure: FIGS. 38A, 38B, 38C, and 38D display cellular activity of peptide 37. (FIG. 38A) Cellular uptake of peptides 1, 37, and 46 (5 μM) by HeLa cells as analyzed by flow cytometry. MFI, mean fluorescence intensity; none, untreated cells (no peptide). (FIG. 38B) Anti-proliferative effect of peptides 37, 46, and 47 on HeLa cells as measured by MTT assay. (FIG. 38C) Western blots showing the effect of peptides 1, 37 and 47 on the protein level of PML in HeLa cells. β-Actin was used as loading control. (FIG. 38D) Quantification of western blot results from (FIG. 38C). Data reported were after background subtraction and represent the mean±SD from 3 independent experiments.
Finally, to ascertain that Pin1 is the molecular target of peptide 37 in vivo, the intracellular protein level of a well-established Pin1 substrate, […] (PML), was examined by western blot analysis. Pin1 negatively regulates the PML level in a phosphorylation-dependent manner and inhibition of Pin1 activity is expected to stabilize PML and increase its intracellular level. […] The effect was already significant at 0.2 μM inhibitor (1.8-fold increase in the PML level) and plateaued at ˜1 μM (3.3-fold increase). Again, bicyclic peptide 47 had no effect under the same conditions, while peptide 1 (the positive control, at 5 μM) increased the PML level by 3.1-fold.

cyclophilin A = cyclophilin A (Homo sapiens, UniProt P62937); assay: cis-trans isomerase activity; type: biochemical; conditions: up to 5 μM
Procedure: as §1, §3

FKBP12 = FKBP12 (Homo sapiens, UniProt P62942); assay: cis-trans isomerase activity; type: biochemical; conditions: up to 5 μM
Procedure: as §1, §3

Pin4 = Pin4 (Homo sapiens, UniProt Q9Y237); assay: cis-trans isomerase activity; type: biochemical
Procedure: as §1, §3

Pin1 [5] = target: T1, Pin1; assay: Pin1 binding by FA (FITC-labeled peptides); conditions: FITC-labeled peptide, FA; read-out: KD
Pin1 [6] = target: T1, Pin1; assay: FA competition with FITC-labeled peptide 1; conditions: 100 nM FITC-labeled peptide 1, 400 nM Pin1; read-out: IC50 for inhibiting binding of peptide 1 to Pin1
Procedure: as §1, §2

HeLa cells [7] = assay: Cellular uptake by flow cytometry; type: cell-based, human
Procedure: The cellular uptake efficiency of peptide 37, peptide 1, and a previously reported membrane-impermeable monocyclic Pin1 inhibitor (Table 18, peptide 46) was assessed by incubating HeLa cells with the FITC-labeled peptides (5 μM) for 2 h and quantifying the total intracellular fluorescence by flow cytometry analysis. […] By contrast, cells treated with peptides 1 and 37 gave MFI values of 2562 and 8792, respectively. Thus, peptide 37 is internalized by HeLa cells ˜4-fold more efficiently than peptide 1. Presumably, the negative charged phosphate group of peptide 1 interacted electrostatically with the positively charged CPP motif and reduced the cellular uptake efficiency of the latter.

SHP1 = SHP1 (Homo sapiens, UniProt P29350); assay: Selectivity panel binding
Procedure: as §3

SHP2 = SHP2 (Homo sapiens, UniProt Q06124); assay: Selectivity panel binding
Procedure: as §3

Grb2 SH2 domain = target: T2, Grb2 SH2 domain (Homo sapiens, UniProt P62993); assay: Selectivity panel binding
T2 construct: the Grb2 SH2 domain
Procedure: as §3

tumor necrosis factor-a = tumor necrosis factor-a (Homo sapiens, UniProt P01375); assay: Selectivity panel binding
Procedure: as §3

[8] = target: protein tyrosine phosphatases 1B (Homo sapiens, UniProt P18031); assay: Selectivity panel binding
Procedure: as §3

Ras = assay: Selectivity panel binding
Procedure: as §3

[9] = target: T3, recombinant caspase-3 enzyme (Homo sapiens, UniProt P42574); assay: In vitro fluorimetric caspase assay; type: biochemical; conditions: 10 μM substrate, 10 mM DTT
T3 construct: purchased EMD Chemicals (San Diego, Calif.)
T3 sequence (P42574 29-175 limits assumed): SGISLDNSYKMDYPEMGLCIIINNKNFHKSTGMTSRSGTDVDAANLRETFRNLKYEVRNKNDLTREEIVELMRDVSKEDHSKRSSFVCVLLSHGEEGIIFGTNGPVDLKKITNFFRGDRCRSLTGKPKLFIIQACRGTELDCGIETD
T3 sequence (P42574 176-277 limits assumed): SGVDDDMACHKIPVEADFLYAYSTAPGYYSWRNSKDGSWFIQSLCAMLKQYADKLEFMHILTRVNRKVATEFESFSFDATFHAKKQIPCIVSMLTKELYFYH
Source text: Reagents for peptide synthesis were purchased from Advanced ChemTech (Louisville, Ky.), NovaBiochem (La Jolla, Calif.), or Anaspec (San Jose, Calif.). Rink resin LS (100-200 mesh, 0.2 mmol/g) was purchased from Advanced ChemTech. Dextrane^Rho, trypsin and α-chymotrypsin were purchased from Sigma-Aldrich (St. Louis, Mo.). Cell culture media, fetal bovine serum, penicillin-streptomycin, 0.25% trypsin-EDTA, and DPBS were purchased from Invitrogen (Carlsbad, Calif.). Nuclear staining dye DRAQ5 was purchased from Thermo Scientific (Rockford, Ill.). Caspase-3, Human, recombinant protein was purchased from EMD Chemicals (San Diego, Calif.).
0.5 μL (100 U/μL) caspase-3 enzyme was first incubated with 90 μL of reaction buffer (50 mM HEPES, pH 7.4, 100 mM NaCl, 10 mM DTT) for 30 min in 96-well plate. Fluorogenic substrates (10 μL, 100 μM) were mixed into the above solutions to start the reactions, and the plate was measured on a Spectramax M5 plate reader (Ex=360 nm, Em=440 nm) (Molecular Devices). Fluorescence units (FU) increase at one-minute intervals was correlated to the release of Amc due to protease activity. The ΔFU/min was calculated from the linear portion of the reaction curve. Reported values are averages of three trials with the standard deviation indicated.

T1 sequence (Q13526 whole entry S16A/Y23A): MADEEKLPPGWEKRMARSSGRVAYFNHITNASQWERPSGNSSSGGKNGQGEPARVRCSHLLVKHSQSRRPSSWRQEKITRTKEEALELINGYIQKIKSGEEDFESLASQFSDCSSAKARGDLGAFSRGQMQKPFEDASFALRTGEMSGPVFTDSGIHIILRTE
Sequence of Pin4 (Q9Y237 whole entry): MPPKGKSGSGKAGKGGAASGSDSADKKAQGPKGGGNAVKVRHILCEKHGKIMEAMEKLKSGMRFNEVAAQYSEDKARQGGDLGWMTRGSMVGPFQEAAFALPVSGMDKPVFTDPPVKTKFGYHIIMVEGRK
Sequence of bovine serum albumin (BSA) (P02769 25-607): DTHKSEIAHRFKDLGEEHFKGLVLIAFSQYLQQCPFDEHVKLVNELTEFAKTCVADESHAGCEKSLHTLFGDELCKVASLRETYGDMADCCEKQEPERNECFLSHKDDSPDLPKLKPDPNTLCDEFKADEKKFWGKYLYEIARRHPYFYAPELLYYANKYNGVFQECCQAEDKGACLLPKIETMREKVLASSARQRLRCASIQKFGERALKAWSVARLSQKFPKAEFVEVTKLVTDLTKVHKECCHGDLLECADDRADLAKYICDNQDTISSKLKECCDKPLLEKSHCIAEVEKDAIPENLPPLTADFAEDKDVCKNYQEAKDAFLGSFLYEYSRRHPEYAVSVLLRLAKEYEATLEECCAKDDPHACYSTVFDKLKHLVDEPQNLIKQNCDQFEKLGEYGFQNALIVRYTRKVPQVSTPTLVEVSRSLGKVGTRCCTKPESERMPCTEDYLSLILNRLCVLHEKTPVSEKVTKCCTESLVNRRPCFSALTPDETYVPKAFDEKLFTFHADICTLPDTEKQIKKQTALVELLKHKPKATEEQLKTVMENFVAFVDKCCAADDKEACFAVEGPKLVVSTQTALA
Sequence of FKBP12 (P62942 whole entry): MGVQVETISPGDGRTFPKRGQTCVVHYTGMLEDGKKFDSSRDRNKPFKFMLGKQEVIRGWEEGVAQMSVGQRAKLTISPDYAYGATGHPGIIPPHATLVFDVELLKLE
Sequence of protein tyrosine phosphatases 1B (P18031 whole entry): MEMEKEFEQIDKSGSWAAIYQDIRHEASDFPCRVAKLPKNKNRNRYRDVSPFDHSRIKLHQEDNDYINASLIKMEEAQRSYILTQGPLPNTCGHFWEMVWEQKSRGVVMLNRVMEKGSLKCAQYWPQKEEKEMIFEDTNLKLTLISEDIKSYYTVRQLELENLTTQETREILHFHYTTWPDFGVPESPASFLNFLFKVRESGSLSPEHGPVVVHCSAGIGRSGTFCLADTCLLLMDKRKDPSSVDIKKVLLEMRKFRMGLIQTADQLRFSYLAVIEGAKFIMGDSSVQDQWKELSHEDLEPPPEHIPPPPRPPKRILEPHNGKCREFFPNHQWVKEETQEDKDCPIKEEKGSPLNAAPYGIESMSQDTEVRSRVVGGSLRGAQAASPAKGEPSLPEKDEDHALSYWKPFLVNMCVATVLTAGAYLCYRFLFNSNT
Sequence of SHP1 (P29350 whole entry): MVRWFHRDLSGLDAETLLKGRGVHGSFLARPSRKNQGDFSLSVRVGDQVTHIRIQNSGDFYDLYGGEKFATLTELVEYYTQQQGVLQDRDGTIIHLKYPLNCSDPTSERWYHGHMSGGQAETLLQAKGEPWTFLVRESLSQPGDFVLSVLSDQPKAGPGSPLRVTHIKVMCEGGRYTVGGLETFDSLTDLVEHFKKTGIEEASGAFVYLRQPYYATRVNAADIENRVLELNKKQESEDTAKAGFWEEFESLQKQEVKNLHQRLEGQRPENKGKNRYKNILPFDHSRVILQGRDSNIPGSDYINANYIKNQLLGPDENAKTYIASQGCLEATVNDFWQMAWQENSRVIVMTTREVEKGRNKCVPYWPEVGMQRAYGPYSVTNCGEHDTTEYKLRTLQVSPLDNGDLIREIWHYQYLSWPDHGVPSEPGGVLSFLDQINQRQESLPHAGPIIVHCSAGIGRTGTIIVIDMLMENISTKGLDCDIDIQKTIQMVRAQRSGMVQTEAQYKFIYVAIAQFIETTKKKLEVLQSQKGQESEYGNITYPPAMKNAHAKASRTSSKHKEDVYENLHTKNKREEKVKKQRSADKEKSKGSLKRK
T2 sequence (P62993 60-152 limits assumed): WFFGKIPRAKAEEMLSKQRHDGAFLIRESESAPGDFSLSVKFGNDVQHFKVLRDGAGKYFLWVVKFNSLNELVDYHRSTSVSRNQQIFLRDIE
Sequence of tumor necrosis factor-a (P01375 77-233 limits assumed): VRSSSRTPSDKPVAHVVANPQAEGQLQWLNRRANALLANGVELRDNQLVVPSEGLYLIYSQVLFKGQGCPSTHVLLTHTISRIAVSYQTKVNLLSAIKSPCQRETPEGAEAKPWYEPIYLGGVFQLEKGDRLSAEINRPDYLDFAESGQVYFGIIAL
Sequence of cyclophilin A (P62937 whole entry): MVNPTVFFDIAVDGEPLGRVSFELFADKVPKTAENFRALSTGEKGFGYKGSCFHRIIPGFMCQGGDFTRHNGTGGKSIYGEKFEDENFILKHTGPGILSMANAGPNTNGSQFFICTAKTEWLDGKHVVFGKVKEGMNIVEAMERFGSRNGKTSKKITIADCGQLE
Sequence of SHP2 (Q06124 whole entry, species assumed): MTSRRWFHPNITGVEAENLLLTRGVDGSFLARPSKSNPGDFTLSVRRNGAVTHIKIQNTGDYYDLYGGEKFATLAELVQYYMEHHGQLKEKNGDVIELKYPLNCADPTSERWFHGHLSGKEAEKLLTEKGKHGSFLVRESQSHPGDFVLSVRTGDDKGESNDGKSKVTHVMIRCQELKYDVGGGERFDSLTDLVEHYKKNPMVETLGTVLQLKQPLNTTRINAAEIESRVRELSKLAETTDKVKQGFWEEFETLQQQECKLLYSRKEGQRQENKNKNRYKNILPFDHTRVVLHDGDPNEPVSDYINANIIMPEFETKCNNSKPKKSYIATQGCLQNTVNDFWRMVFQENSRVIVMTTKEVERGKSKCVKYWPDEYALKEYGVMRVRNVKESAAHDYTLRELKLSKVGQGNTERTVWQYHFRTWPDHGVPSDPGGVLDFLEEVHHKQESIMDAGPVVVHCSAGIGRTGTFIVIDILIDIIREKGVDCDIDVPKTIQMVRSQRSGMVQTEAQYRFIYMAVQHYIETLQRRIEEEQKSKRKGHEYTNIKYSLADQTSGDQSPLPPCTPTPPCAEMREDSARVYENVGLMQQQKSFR

Q: What does the source list for `C[C@@H]1NC(=O)[C@H](CCCNC(=N)N)NC(=O)[C@H](Cc2ccc3ccccc3c2)NC(=O)[C@@H]2CCCCN2C(=O)[C@@H]([C@H](C)O)NC(=O)[C@H](Cc2ccc(F)cc2)NC(=O)[C@@H](Cc2ccc(F)cc2)NC(=O)c2cc3cc(c2)C(=O)NC[C@H](NC(=O)[C@@H](Cc2ccccc2)NC1=O)C(=O)N[C@@H](Cc1ccccc1)C(=O)N[C@@H](Cc1ccc2ccccc2c1)C(=O)N[C@@H](CCCNC(=N)N)C(=O)N[C@@H](CCCNC(=N)N)C(=O)N[C@@H](CCCNC(=N)N)C(=O)N[C@@H](CCCNC(=N)N)C(=O)N[C@H](C(=O)N[C@@H](CCCCN)C(N)=O)CNC3=O` [Peptide 37, bicyclo[Tm-(D-4-Fpa-Fpa-D-Thr-Pip-Nal-Arg-Ala-D-Phe)-Dap-(Phe-Nal-Arg-Arg-Arg-Arg-Dap)]-Lys] ([dPhe(4-F)][Phe(4-F)][dT][Pip][2Nal]RA[dF][Dap]F[2Nal]RRRR[Dap]K-NH2; linker N-9-16 via Trimesoyl; C-terminus assumed)?
A: IC50 (Pin1 [1]): 170 nM; Kd [2]: ~20 µM; Growth inhibition (HeLa cells [3]; 3-day treatment with 5 μM): > 60%; IC50 (HeLa cells [3]; read-out: IC50 of HeLa cell growth, MTT): 1000 nM; Increase in the PML level (HeLa cells [4]; 0.2 μM inhibitor): 1.8 fold; Effect on the PML level (HeLa cells [4]; 0.2-5 μM): concentration-dependent increases in the PML level; Increase in the PML level (plateau) (HeLa cells [4]; ~1 μM inhibitor): 3.3 fold; Effect on catalytic activity of cyclophilin A (cyclophilin A): no effect; Effect on catalytic activity of FKBP12 (FKBP12): no effect; inhibition at 5 µM (Pin4; 5 μM inhibitor): ~15%; IC50 (Pin4; estimated): ~34 µM; Kd (Pin1 [5]): 120 nM; IC50 (Pin1 [6]): 190 nM; Internalization more efficient than peptide 1 (HeLa cells [7]): ~4 fold; Mean fluorescence intensity (MFI) (HeLa cells [7]; 5 μM FITC-labeled peptide, 2 h): 8792; Binding to SHP1 (SHP1): not any of the other six proteins; Binding to SHP2 (SHP2): not any of the other six proteins; Binding to Grb2 SH2 domain (Grb2 SH2 domain): not any of the other six proteins; Binding to tumor necrosis factor-a (tumor necrosis factor-a): not any of the other six proteins; Binding to protein tyrosine phosphatase 1B [8]: not any of the other six proteins; Binding to Ras (Ras): not any of the other six proteins

Q: Which “In vitro activity against recombinant caspase-3 enzyme, ΔFU/min” value [9] does the source give for “A^c−RRRRRRRRRDΩUD^−A^mc (not fully specified (N-terminus, C-terminus); printed as Ac−RRRRRRRRRDΩUD−Amc) [Peptide 7 (Example 2)]” here?
A: 45.3 ± 6.5 ΔFU/min
